Experimental data reported in ChEMBL document CHEMBL1122628, “Nonsteroidal antiinflammatory agents. 14. Synthesis and pharmacological profile of 6-chloro-5-(cyclopentylmethyl)indan-1-carboxylic acid” (J Med Chem, 1984).

What was measured:
Rattus norvegicus [1] = species: Rattus norvegicus; experiment: Gastrointestinal tolerability was evaluated in rats and amount blood loss was reported.; format: functional
Rattus norvegicus [2] = experiment: Antiinflammatory activity was evaluated in an adjuvant arthritis (subchronic inflammation) test, after administering compound orally in rats.; format: functional; details: po
Rattus norvegicus [3] = experiment: Antiinflammatory activity was evaluated in an carrageenan edema (acute inflammation) test, after administering compound orally in rats.; format: functional; details: po
Rattus norvegicus [4] = species: Rattus norvegicus; experiment: Gastrointestinal tolerability was evaluated under chronic conditions, in rats. The ulcerogenic dose from a 4-week toxicity study, was reported.; format: functional
Rattus norvegicus [5] = species: Rattus norvegicus; experiment: Gastrointestinal tolerability was evaluated under chronic conditions, in rats. The ulcerogenic dose was reported.; format: functional
Rattus norvegicus [6] = species: Rattus norvegicus; experiment: Gastrointestinal tolerability was evaluated under acute conditions, in rats. The ulcerogenic dose was reported.; format: functional
Rattus norvegicus [7] = species: Rattus norvegicus; experiment: Gastrointestinal tolerability was evaluated in rats and amount blood loss was reported; format: functional
Rattus norvegicus [8] = experiment: Antiinflammatory activity was evaluated in an adjuvant arthritis (subchronic inflammation) test after administering compound orally in rats; format: functional; details: po
Rattus norvegicus [9] = experiment: Antiinflammatory activity was evaluated in an carrageenan edema (acute inflammation) test, after administering compound orally in rats; 15-30; format: functional; details: po
Rattus norvegicus [10] = species: Rattus norvegicus; experiment: Gastrointestinal tolerability was evaluated under acute conditions, in rats. The ulcerogenic dose was reported; format: functional
Rattus norvegicus [11] = species: Rattus norvegicus; experiment: Gastrointestinal tolerability was evaluated under chronic conditions, in rats. The ulcerogenic dose was reported; format: functional
Rattus norvegicus [12] = species: Rattus norvegicus; experiment: Gastrointestinal tolerability was evaluated in rats and compound dose that causes lethality was reported; format: toxicity, organism-based; details: in vivo
Rattus norvegicus [13] = experiment: Antiinflammatory activity was evaluated in an adjuvant arthritis (subchronic inflammation) test after administering compound orally in rats.; format: functional; details: po
Rattus norvegicus [14] = experiment: Antiinflammatory activity was evaluated in an carrageenan edema (acute inflammation) test, after administering compound orally in rats; format: functional; details: po
Rattus norvegicus [15] = experiment: Antiinflammatory activity was evaluated in an carrageenan edema (acute inflammation) test, after administering compound orally in rats; 50-100; format: functional; details: po
Rattus norvegicus [16] = species: Rattus norvegicus; experiment: Gastrointestinal tolerability was evaluated under chronic conditions, in rats. The ulcerogenic dose was reported; 30-100; format: functional
Rattus norvegicus [17] = species: Rattus norvegicus; experiment: Gastrointestinal tolerability was evaluated in rats and compound dose that causes lethality was reported.; format: toxicity, organism-based; details: in vivo

Compound	Blood loss (Rattus norvegicus [1])	ED40 (Rattus norvegicus [2])	ED50 (Rattus norvegicus [3])	UD (Rattus norvegicus [6])	Blood loss (Rattus norvegicus [7])	also measured
O=C(O)C1CCc2cc(CC3CCCC3)c(Cl)cc21 (configuration not stated)	>100 mg/kg	30 mg/kg	30 mg/kg	>400 mg/kg	–	UD (Rattus norvegicus [4]): >400 mg/kg; UD (Rattus norvegicus [5]): >100 mg/kg
CC(C(=O)O)c1ccc2oc(-c3ccc(Cl)cc3)nc2c1 (configuration not stated) [BENOXAPROFEN]	–	–	–	–	<50 mg/kg	ED40 (Rattus norvegicus [8]): 10 mg/kg; ED50 (Rattus norvegicus [9]): 15 mg/kg; UD (Rattus norvegicus [10]): >200 mg/kg; UD (Rattus norvegicus [11]): <30 mg/kg; Lethality (Rattus norvegicus [12]): < 50 mg/kg
O=C(O)C1CCc2cc(C3CCCCC3)c(Cl)cc21 (configuration not stated) [CLIDANAC]	–	4 mg/kg	4 mg/kg	<3 mg/kg	–	–
O=C(O)Cc1ccccc1Nc1c(Cl)cccc1Cl [DICLOFENAC]	–	–	–	20 mg/kg	20 mg/kg	ED40 (Rattus norvegicus [13]): 2 mg/kg; ED50 (Rattus norvegicus [14]): 2 mg/kg; UD (Rattus norvegicus [11]): 20 mg/kg
CC(C)Cc1ccc(C(C)C(=O)O)cc1 (configuration not stated) [IBUPROFEN]	–	–	–	–	200 mg/kg	ED40 (Rattus norvegicus [8]): > 150 mg/kg; ED50 (Rattus norvegicus [15]): 50 mg/kg; UD (Rattus norvegicus [10]): 30 mg/kg; UD (Rattus norvegicus [16]): 30 mg/kg; Lethality (Rattus norvegicus [12]): 400 mg/kg
COc1ccc2c(c1)c(CC(=O)O)c(C)n2C(=O)c1ccc(Cl)cc1 [INDOMETHACIN]	4 mg/kg	2 mg/kg	4 mg/kg	4 mg/kg	–	UD (Rattus norvegicus [5]): 4 mg/kg; Lethality (Rattus norvegicus [17]): 8 mg/kg
COc1ccc2cc([C@H](C)C(=O)O)ccc2c1 [NAPROXEN]	>30 mg/kg	10 mg/kg	15 mg/kg	5 mg/kg	–	Lethality (Rattus norvegicus [17]): > 30 mg/kg
